Assay [1] deals with NAMPT (Homo sapiens, UniProt P43490). In words: TR-FRET Binding Assay of NAMPT with PRPP. The note with it: with 200 μM PRPP and 2.5 mM ATP; 2 nM NAMPT, 2 nM probe, 16 hours equilibration. An outline of the steps:
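Substrate-containing variant: 200 μM PRPP plus 2.5 mM ATP are added to 2 nM NAMPT and 2 nM probe, with a 16-hour incubation ahead of TR-FRET reading.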
In general terms: TR-FRET usually uses a lanthanide donor and a delayed reading to cut background.

For assay [2], the system named is PC3 cells. In words: NAMPT Cell Proliferation Assay. In kind it is cell-based. Conditions: Homo sapiens, PC-3, 120 h, 5 days incubation, cell viability by Cell Titer Glo. The gist of the method:
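Proliferation of PC3 cells treated 5 days with a 10-fold compound series (top 10 μM) was quantified by Cell Titer Glo luminescence; IC50s were fitted from percent inhibition.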
For orientation: ATP-based viability assays read luminescence as a measure of living cells.

For assay [3], the target named is NAMPT (human, recombinant, C-terminally His-tagged) (Homo sapiens, UniProt P43490). In words: Time-Resolved Fluorescence Resonance Energy Transfer (TR-FRET) Binding Assay of NAMPT. Conditions: without substrates; 6.8 nM NAMPT, 200 nM probe, 3 hours equilibration. An outline of the steps:
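In a displacement format, the nicotinamide-site tracer at 200 nM competed with test compound for 6.8 nM enzyme detected via 1 nM terbium anti-His antibody; incubation lasted 3 hours at room temperature in 50 mM HEPES pH 7.5, 100 mM NaCl. Normalized 520/495 nm emission ratios gave IC50 values.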

A value given as a limit tells only on which side of the number the result lay.

Sequence of NAMPT (P43490 whole entry): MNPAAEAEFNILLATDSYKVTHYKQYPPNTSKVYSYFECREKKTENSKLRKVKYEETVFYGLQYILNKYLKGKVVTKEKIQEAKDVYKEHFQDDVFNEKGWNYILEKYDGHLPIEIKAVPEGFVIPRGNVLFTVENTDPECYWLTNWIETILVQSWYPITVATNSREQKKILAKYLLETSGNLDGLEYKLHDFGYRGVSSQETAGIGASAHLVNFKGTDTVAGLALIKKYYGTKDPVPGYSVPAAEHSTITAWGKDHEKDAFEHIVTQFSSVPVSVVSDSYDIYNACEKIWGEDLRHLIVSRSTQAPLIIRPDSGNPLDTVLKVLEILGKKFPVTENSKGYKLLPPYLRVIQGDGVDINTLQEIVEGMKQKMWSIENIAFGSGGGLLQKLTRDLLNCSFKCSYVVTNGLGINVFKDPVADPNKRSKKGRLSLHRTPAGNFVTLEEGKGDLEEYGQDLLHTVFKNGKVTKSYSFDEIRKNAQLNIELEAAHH
Sequence of NAMPT (human, recombinant, C-terminally His-tagged) (P43490 whole entry): as above

In the case of `CCCC(=O)N1CCC(c2ccc(C(=O)NCc3ccn4ccnc4c3)s2)C1` (stereo not drawn) [Example 782, 5-(1-butanoylpyrrolidin-3-yl)-N-(imidazo[1,2-a]pyridin-7-ylmethyl)thiophene-2-carboxamide], the IC50 (commonly the concentration that gives 50% inhibition) in assay [1] is 0.466 nM; in assay [2], 24.7 nM; in assay [3] it was 134 nM.

For the compound `COc1ccccc1C(=O)N1CCC(c2ccc(C(=O)NCc3ccn4ccnc4c3)cc2)CC1` [Example 539, N-(imidazo[1,2-a]pyridin-7-ylmethyl)-4-[1-(2-methoxybenzoyl)piperidin-4-yl]benzamide], the IC50 in assay [1] turned out to be 0.31 nM; in assay [2], 3.47 nM; in assay [3] it was 98.5 nM.

On to `O=C(NCc1ccn2ccnc2c1)c1ccc(C2CCN(C(=O)c3ccncc3)C2)cc1` (stereo not drawn) [Example 608, N-(imidazo[1,2-a]pyridin-7-ylmethyl)-4-[1-(pyridin-4-ylcarbonyl)pyrrolidin-3-yl]benzamide], for which the half-inhibitory concentration (IC50) in assay [1] was 0.51 nM; in assay [2] it was 148 nM; in assay [3], 481 nM.

For `Cn1nccc1-c1ccc(C(=O)NCc2ccn3ccnc3c2)s1` [Example 363, N-(imidazo[1,2-a]pyridin-7-ylmethyl)-5-(1-methyl-1H-pyrazol-5-yl)thiophene-2-carboxamide], the results for the concentration for half-maximal inhibition (IC50) in assay [1], in assay [2] and in assay [3] were 0.305 nM, 7660 nM and 588 nM, respectively.

On to `O=C(Cc1ccc(NC(=O)CC2CCCC2)cc1)Nc1ccc2nccn2c1` [Example 76, 2-cyclopentyl-N-{4-[2-(imidazo[1,2-a]pyridin-6-ylamino)-2-oxoethyl]phenyl}acetamide], for which the half-maximal inhibitory concentration (IC50) in assay [1] was determined as 0.739 nM; in assay [2] it was 185 nM; in assay [3], 993 nM.

Turning to `CC(C)(C)CC(=O)N1CCC(c2ccc(C(=O)NCc3ccn4ccnc4c3)cc2)CC1` [Example 499, 4-[1-(3,3-dimethylbutanoyl)piperidin-4-yl]-N-(imidazo[1,2-a]pyridin-7-ylmethyl)benzamide], the figures for the IC50 in assay [1], in assay [2] and in assay [3] were 0.38 nM, 2.19 nM and 113 nM, respectively.

Regarding `O=C(NCc1ccn2ccnc2c1)c1ccc(C2CN(C(=O)c3ccc(F)cc3F)C2)cc1` [Example 641, 4-[1-(2,4-difluorobenzoyl)azetidin-3-yl]-N-(imidazo[1,2-a]pyridin-7-ylmethyl)benzamide], the IC50 amounted to 0.684 nM in assay [1], 9.99 nM in assay [2] and 74.8 nM in assay [3].

For `Cc1ccc(C(=O)N2CCC(c3ccc(C(=O)NCc4ccn5ccnc5c4)s3)C2)cc1` (stereo not drawn) [Example 718, N-(imidazo[1,2-a]pyridin-7-ylmethyl)-5-[1-(4-methylbenzoyl)pyrrolidin-3-yl]thiophene-2-carboxamide], the IC50 in assay [1] stood at 0.755 nM; in assay [2], 1.25 nM; in assay [3], 23.6 nM.

As to `O=C(NCc1ccn2ccnc2c1)c1ccc(C2CCN(S(=O)(=O)C3CC3)C2)cc1` (stereo not drawn) [Example 626, 4-[1-(cyclopropylsulfonyl)pyrrolidin-3-yl]-N-(imidazo[1,2-a]pyridin-7-ylmethyl)benzamide], the values for the IC50 in assay [1], in assay [2] and in assay [3] were 0.793 nM, 80.7 nM and 645 nM, respectively.

With `CS(=O)(=O)N1CC=C(c2ccc(C(=O)NCc3ccn4ccnc4c3)s2)CC1` [Example 242, N-(imidazo[1,2-a]pyridin-7-ylmethyl)-5-[1-(methylsulfonyl)-1,2,3,6-tetrahydropyridin-4-yl]thiophene-2-carboxamide], the half-inhibitory concentration (IC50) in assay [1] amounted to 0.169 nM; in assay [2], 7.56 nM; in assay [3], 57.1 nM.

For `CCC(C)(C)C(=O)N1CCC(c2ccc(C(=O)NCc3ccn4ccnc4c3)s2)C1` (stereo not drawn) [Example 791, 5-[1-(2,2-dimethylbutanoyl)pyrrolidin-3-yl]-N-(imidazo[1,2-a]pyridin-7-ylmethyl)thiophene-2-carboxamide], the concentration for half-maximal inhibition (IC50) in assay [1] amounted to 1.15 nM; in assay [2], 0.898 nM; in assay [3], 47.1 nM.

For the compound `CC(C)Cn1cc(-c2ccc(NC(=O)NCc3ccc4nccn4c3)cc2)cn1` [Example 362, 1-(imidazo[1,2-a]pyridin-6-ylmethyl)-3-{4-[1-(2-methylpropyl)-1H-pyrazol-4-yl]phenyl}urea], the IC50 in assay [1] is 0.256 nM; in assay [2] it was 106 nM; in assay [3], 143 nM.

On to `O=C(NCc1ccc2nccn2c1)c1ccc(-c2cnn(CC3CCCOC3)c2)s1` (stereo not drawn) [Example 206, N-(imidazo[1,2-a]pyridin-6-ylmethyl)-5-[1-(tetrahydro-2H-pyran-3-ylmethyl)-1H-pyrazol-4-yl]thiophene-2-carboxamide], for which the concentration for half-maximal inhibition (IC50) is 0.263 nM in assay [1], 1.31 nM in assay [2] and 25.7 nM in assay [3].

With `O=C(NCc1ccn2ccnc2c1)c1ccc(C2CCN(C(=O)CC3CCCO3)CC2)cc1` (stereo not drawn) [Example 235, N-(imidazo[1,2-a]pyridin-7-ylmethyl)-4-[1-(tetrahydrofuran-2-ylacetyl)piperidin-4-yl]benzamide], the 50% inhibitory concentration (IC50) was determined as 0.369 nM in assay [1], 55.5 nM in assay [2] and 494 nM in assay [3].

On to `CC(C)CC(=O)N(Cc1ccc(C#N)cc1)c1ncc(C(=O)NCc2ccc3nccn3c2)s1` [Example 55, 2-[(4-cyanobenzyl)(3-methylbutanoyl)amino]-N-(imidazo[1,2-a]pyridin-6-ylmethyl)-1,3-thiazole-5-carboxamide], for which the figures for the concentration for half-maximal inhibition (IC50) in assay [1], in assay [2] and in assay [3] were 1.37 nM, 14.6 nM and 364 nM, respectively.

Regarding `CC(C)C(=O)N1CCC(c2ccc(C(=O)NCc3ccn4c(Cl)cnc4c3)cc2)CC1` [Example 575, N-[(3-chloroimidazo[1,2-a]pyridin-7-yl)methyl]-4-[1-(2-methylpropanoyl)piperidin-4-yl]benzamide], the half-inhibitory concentration (IC50) in assay [1] is 10.8 nM; in assay [2], greater than 10000 nM; in assay [3], 3250 nM.

`CC(C)(C)OC(=O)N1CCC(c2ccc(C(=O)Nc3ccn4ccnc4c3)cc2)CC1` [Example 322, tert-butyl 4-[4-(imidazo[1,2-a]pyridin-7-ylcarbamoyl)phenyl]piperidine-1-carboxylate]: the IC50 was 34.1 nM in assay [1], greater than 10000 nM in assay [2] and 6040 nM in assay [3].

Consider `COCC(C)C(=O)Nc1ccc(NC(=O)Nc2ccc3nccn3c2)cc1` (stereo not drawn) [Example 43], for which the results for the IC50 in assay [1], in assay [2] and in assay [3] were 0.169 nM, 7450 nM and 4350 nM, respectively.

For `O=C(Nc1ccc(C(=O)NCCCN2CCCC2=O)cc1)Nc1ccc2nccn2c1` [Example 21, 4-[(imidazo[1,2-a]pyridin-6-ylcarbamoyl)amino]-N-[3-(2-oxopyrrolidin-1-yl)propyl]benzamide], the half-maximal inhibitory concentration (IC50) in assay [1] worked out at 0.887 nM; in assay [2] it was 899 nM; in assay [3], 433 nM.

As for `O=C(NCc1ccn2ccnc2c1)c1ccc(C2=CCN(S(=O)(=O)C3CC3)CC2)s1` [Example 246, 5-[1-(cyclopropylsulfonyl)-1,2,3,6-tetrahydropyridin-4-yl]-N-(imidazo[1,2-a]pyridin-7-ylmethyl)thiophene-2-carboxamide], the IC50 in assay [1] is 0.22 nM; in assay [2], 2.43 nM; in assay [3] it was 73.2 nM.

With `Cn1cc(CCC(=O)N(CC2CCCO2)c2ncc(C(=O)NCc3ccc4nccn4c3)s2)cn1` (stereo not drawn) [Example 130, N-(imidazo[1,2-a]pyridin-6-ylmethyl)-2-{[3-(1-methyl-1H-pyrazol-4-yl)propanoyl](tetrahydrofuran-2-ylmethyl)amino}-1,3-thiazole-5-carboxamide], the IC50 stood at 0.981 nM in assay [1], 6.55 nM in assay [2] and 53.2 nM in assay [3].

The values above are taken from US9187472B2 (AbbVie Inc., priority 2012, dated 2015).
